In the NIST ThermoML archive (doi:10.1016/j.fluid.2013.05.013):
± gives the expanded uncertainty stated by the source.

Details: 101.33 kPa, Liquid; for viscosity: Concentric cylinders viscometry; for mass density: Vibrating tube method

SMILES | viscosity (288.15 K) [mPa·s] | mass density (288.15 K) [kg/m3] | viscosity (298.15 K) [mPa·s] | mass density (298.15 K) [kg/m3] | viscosity (308.15 K) [mPa·s] | mass density (308.15 K) [kg/m3] | viscosity (318.15 K) [mPa·s] | mass density (318.15 K) [kg/m3]
CCn1cc[n+](C)c1.O=S(=O)([N-]S(=O)(=O)C(F)(F)F)C(F)(F)F | 47.97 ± 0.29 | 1528.51 ± 0.7 | 32.51 ± 0.2 | 1518.38 ± 0.69 | 23.34 ± 0.14 | 1508.33 ± 0.68 | 17.46 ± 0.11 | 1498.36 ± 0.67
CCn1cc[n+](C)c1.O=S(=O)([O-])C(F)(F)F [1-ethyl-3-methylimidazolium trifluoromethanesulfonate] | 67.66 ± 0.45 | 1392.47 ± 0.57 | 45.12 ± 0.28 | 1384.05 ± 0.56 | 31.89 ± 0.2 | 1375.68 ± 0.56 | 23.4 ± 0.14 | 1367.37 ± 0.55
